Measurements from publication PMC13091788 (NPJ Aging, 2026).
Like-named read-outs stand apart in the source and are kept apart here.

Key:
[1] = Repeated oral administration: plasma concentration and tissue distribution; type: in vivo, mouse; settings: mice, 7 days
Method: In the repeated administration study, animals were treated according to the group allocations as described in the main text and corresponding to Supplementary Figure 2d. Compounds were administered orally either via drinking water or mixed feed for 7 or 28 days, and plasma, brain, heart, and skeletal muscle samples were collected at the final time point (8:00–10:00 a.m.) on the day of sacrifice (n = 4 per group). Blood was drawn from the abdominal vena cava under terminal anesthesia and plasma was separated by centrifugation using heparinized tubes. Tissue samples were homogenized with four volumes of phosphate-buffered saline. Plasma and tissue homogenate samples were precipitated with acetonitrile containing an internal standard (IS) at a volume fourfold or greater than that of the sample, and then centrifuged at 15,000 × g for 10 min at 4 °C. The resulting supernatants were analyzed by LC-MS/MS.
(§1) An LCMS-8060 instrument equipped with a Shimadzu Nexera series LC system (Shimadzu) was used. Berberrubine and IS were analyzed in multiple reaction monitoring mode under electronspray ionization conditions. The analytical column used was a CAPCELL PAK C18 MGIII (3 μm × 2.0 mm ID × 35 mm; OSAKA SODA) at 50 °C. The gradient mobile phase consisted of 0.1% formic acid in water (mobile phase A) and 0.1% formic acid in acetonitrile (mobile phase B) at a total flow rate of 1 mL/min. The initial mobile phase composition was 10% B, which was held constant for 0.5 min, increased in a linear fashion to 90% B over 1 min, then held constant for 0.8 min, and finally brought back to the initial condition of 10% B over 0.01 min and reequilibrated for 1 min. The transitions (precursor ion > product ion) of berberrubine and IS (methyl testosterone) are 322.11 > 307.1 and 303.1 > 109.1 (positive), respectively.

[2] = In vivo pharmacokinetics, single oral dose; design: species or system mouse; settings: mice; for AUC(0-inf) / Cmax / Tmax / half-life / CL/F: male, C57BL/6 N, mouse, plasma; for CL/F: read-out: CLtot/F; for time to reach maximum plasma concentration (Cmax): oral, both 10 mg/kg and 100 mg/kg
Method: All mouse experiments were approved by and conducted in accordance with the guidelines of the Animal Experiment Committee of the University of Tokyo (permission number: P29-24). The compounds were suspended in 0.5% methylcellulose and orally administered to 8-week-old male C57BL/6 N mice (Oriental Yeast) following an overnight fast. The dosage of the compound was 10 or 100 mg/10 mL/kg. Serial blood samples ( < 50 μL per time point) were collected from the caudal vein of each mouse at 15 and 30 min, and at 1, 2, 4, 6 and 24 h post-dose using EM MYSTAR Hematocrit Capillary treated with heparin (AS ONE). Plasma was obtained by centrifugation of the blood samples. After the final blood sampling at 24 h, the mice were humanely euthanized.
Before pharmacokinetic analyses, plasma concentrations were averaged at each time point. Concentrations below the limit of quantitation were excluded from the analysis. Pharmacokinetic analyses were conducted using PhoenixWinNonlin version 8.3 (Pharsight Corp). The maximum plasma concentrations (Cmax) and times to achieve maximum plasma concentrations (Tmax) were obtained directly from the plasma concentration-time curves. The area under the concentration-time curve from zero to infinity (AUC∞) was obtained using the linear trapezoidal method in the noncompartmental analysis module. The software was allowed to determine the best-fit line for the elimination slope for all calculations. Other parameters such as elimination half-life period (t1/2), the apparent total body clearance CLtot/F, and volume of distribution Vdz/F were further calculated.
as §1

[3] = Unbound fraction in human plasma (equilibrium dialysis); type: in vitro ADME; settings: pH 7.4, equilibrium dialysis 6 h, 37 °C, read-out: Plasma protein binding (fraction unbound) human (pH7.4)
Method: An equilibrium dialysis apparatus was used to determine the unbound fraction for each compound in human or mouse plasma. High Throughput Dialysis Model HTD96b and Dialysis Membrane Strips MWCO 12–14 kDa (HTDialysis) were used. Plasma was spiked with the test compound (1 μM), and 150 μL aliquots were loaded into the apparatus and dialyzed versus 150 μL of 0.1 M phosphate buffer (pH 7.4) at 37 °C for 6 h by rotation at 80 rpm. The unbound fraction was calculated as the ratio of receiver side (buffer) to donor side (plasma) concentrations. Two technical replicates were performed.

C2C12 myoblasts = test: Oxygen consumption analysis of C2C12 cells (Seahorse); type: cell-based, mouse; settings: C2C12, 30 μM, 24 h, vs solvent control
Method: Murine myoblast C2C12 cells were used for various cellular experiments in this study. Two different sources of C2C12 cells were used depending on the experiment: C2C12 cells obtained from RIKEN BRC (RCB0987) were used for gene expression, mtDNA quantification, and mitochondrial morphology analysis; C2C12 cells from ATCC (CRL-1772) were used for OCR analysis. Cells were cultured in Dulbecco’s Modified Eagle Medium (DMEM; Sigma-Aldrich or Nacalai Tesque), supplemented with 10% FBS and 1% penicillin–streptomycin. Cells were maintained in a humidified incubator at 37°C with 5% CO2.
To generate mMITOL-knockout C2C12 cells, CRISPR-Cas9 vectors were constructed. […]
The oxygen consumption rate (OCR) of C2C12 myoblasts and H9c2 cardiomyocytes were measured using a Seahorse XFe24 Analyzer and the Seahorse XF Cell Mito Stress Test Kit (Agilent Technologies), as well as a Seahorse XF HS Mini Analyzer and the Seahorse XFp Cell Mito Stress Test Kit (Agilent Technologies), according to the manufacturer’s protocol. […] The assay was performed at 37 °C, and OCR was measured at baseline and after sequential injections of the following compounds: oligomycin (Oligo; 1 μM), FCCP (0.5 μM), and a mixture of rotenone and antimycin A (Rot/Anti; 0.5 μM each). […] Non-mitochondrial respiration was defined as the OCR measured after the injection of rotenone and antimycin A.

[4] = 2 mg/mL AcA-BRB in drinking water

SMILES | plasma berberrubine concentration compared to all other groups ([1]; 2 mg/mL in drinking water) | AUC(0-inf) ([2]; single oral gavage 10 mg/kg) | Cmax ([2]; single oral gavage 10 mg/kg) | Tmax ([2]; single oral gavage 10 mg/kg) | half-life ([2]; single oral gavage 10 mg/kg) | CL/F ([2]; single oral gavage 10 mg/kg) | AUC(0-inf) ([2]; single oral gavage 100 mg/kg) | Cmax ([2]; single oral gavage 100 mg/kg) | Tmax ([2]; single oral gavage 100 mg/kg) | half-life ([2]; single oral gavage 100 mg/kg) | CL/F ([2]; single oral gavage 100 mg/kg) | time to reach maximum plasma concentration (Cmax) [2] | Vdz/F ([2]; single oral gavage 10 mg/kg) | Vdz/F ([2]; single oral gavage 100 mg/kg) | fraction unbound at 6 h, 1 μM [3] | OCR: basal respiration, ATP synthesis-linked respiration and maximal respiration (C2C12 myoblasts) | berberrubine concentration in the heart compared to other tissues [1, 4] | berberrubine level in the brain [1, 4]
COc1ccc2cc3[n+](cc2c1O)CCc1cc2c(cc1-3)OCO2 [AcA-BRB, berberrubine acetic acid adduct] | significantly higher | 95.7 ng·h/mL | 101 ng/mL | 15 min | 101 min | 1740 mL/min/kg | 2130 ng·h/mL | 3060 ng/mL | 15 min | 259 min | 783 mL/min/kg | ≤ 0.25 h | 253 L/kg | 292 L/kg | 0.374 | significantly increased |  | 
COc1ccc2cc3[n+](cc2c1O)CCc1cc2c(cc1-3)OCO2 [berberrubine] |  |  |  |  |  |  |  |  |  |  |  |  |  |  |  |  | tendency toward higher concentrations | exceptionally low
COc1ccc2cc3n(cc-2c1=O)CCc1cc2c(cc1-3)OCO2 [Q-BRB, quinoid-type berberrubine] |  | 76.5 ng·h/mL | 126 ng/mL | 15 min | 89.4 min | 2180 mL/min/kg | 5110 ng·h/mL | 8340 ng/mL | 15 min | 299 min | 326 mL/min/kg | ≤ 0.25 h | 281 L/kg | 141 L/kg | 0.359 | significantly increased |  | 
